Consider 1 compound from patent US11723894B2, “Combination product for the treatment of neurological and/or psychiatric disorders” (Consejo Superior de Investigaciones Cientificas (CSIC), priority 2017, dated 2023).

For this test, the system named is Human SH-SY5Y dopaminergic cells. In words: 6-OHDA in vitro model of Parkinson's Disease, cell viability (MTT). The settings on record: tryptamine 1 μM 1 h, then 6-OHDA 30 μM 24 h. In kind it is cell-based. From the text: Example 9: DMT, DET, DPT and 5-MeO-DMT prevent dopaminergic cell death and inflammation (Only Measured for DMT) caused by the potent and selective dopaminergic toxin 6-OHDA in an in vitro model of Parkinson's Disease. These desired effects are preserved in the presence of the 5-HT2A antagonist Ritanserin (Rit). The Human SH-SY5Y dopaminergic cell line was obtained from Sigma-Aldrich, cultured in 96-well plates and propagated in RPMI medium containing glutamine (1%) and 15% of fetal bovine serum (FBS) plus antibiotic (gentamicin), under humidified 5% CO2 and 95% air. On attaining semiconfluence, separate groups of cells were treated with either: a) one of the four hallucinogenic tryptamines at 1 μM for 1 h, followed by 6-OHDA at 30 μM for 24 hours; or b) Rit at 1 μM for 1h, followed one of the four hallucinogenic tryptamines at 1 μM for an additional hour, at which point 6-OHDA was administered, also at 30 μM, and kept for 24 hours. Vehicle-treated cultures were used as controls. Cell cultures were then processed to assess cell viability (for all four tryptamines) and quantification of nitrite concentration (only performed in the DMT and DMT+Rit tests). Cell viability was measured using the MTT assay (Roche Diagnostic, GmbH), which is based on the ability of viable cells to reduce yellow MTT to blue formazan. After the aforementioned 24 h period in the presence of the different tryptamines or the respective tryptamine+Rit combinations, cells were incubated with MTT (0.5 mg/ml, 4 h) and subsequently solubilized in 10% SDS/0.01 M HCl for 12 h in the dark. The extent of MTT reduction was quantified by absorbance measurement at the 595 nm wavelength, as indicated in the instructions provided by the manufacturer. Nitrite quantification: Due to access to equipment problems at the time the experiments with DET, DPT and 5-MeO-DMT were conducted, the assessment of nitrite levels in the medium could only be done for the DMT experiments. These determinations were carried out as described in Example 8. Results from the cell viability tests are expressed as the percentage of viable dopaminergic cells measured. Results from nitrite determinations are expressed as actual concentrations (μM). Results from both techniques are presented in bar graphs.

Structures are written as SMILES.

As for `CN(C)CCc1c[nH]c2ccccc12` [DMT, N,N-dimethyltryptamine], the “reduction in dopaminergic cell death in the presence of Ritanserin” value (Rit 1 μM 1 h) is on record as “maintained”. Further, for the setting “vs 6-OHDA alone”, the “percentage of viable dopaminergic neurons” value is “significant increases”.
